Test [1] has as its target T1, human JAK1 (Homo sapiens, UniProt P23458).
T1 construct: catalytic domain, amino acids 866-1154; catalog number PV4774; purchased Invitrogen PV4774
The test is described as follows: JAK1 inhibition assay (polyGT substrate / Ulight-JAK1 peptide). It counts as biochemical. Particulars: recombinant human JAK1 catalytic domain; polyGT or Ulight-JAK1 peptide assay. In a few lines: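 Two formats. PolyGT radiometric: 45 min at 30 °C, stopped with phosphoric acid, counted as cpm. Ulight-JAK1 peptide: 60 min at room temperature, stopped with Eu-anti-phosphotyrosine/EDTA, read as RFU. Percent inhibition normalised to vehicle and 10 μM staurosporine.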

Test [2] addresses T2, human JAK2 (Homo sapiens, UniProt O60674).
T2 construct: catalytic domain (amino acids 808-1132; catalog number PV4210); GST; purchased Invitrogen PV4210
The test is described as follows: JAK2 inhibition assay (polyGT substrate / Ulight-JAK1 peptide). It is filed as biochemical. Particulars: recombinant human JAK2 catalytic domain; polyGT or Ulight-JAK1 peptide assay. As to the method:
1.2 JAK2 Inhibition Assay
1.2.1 JAK2 Assay polyGT Substrate
0.025 mU of JAK2 is incubated with 2.5 μg polyGT substrate (Sigma catalog number P0275) in kinase reaction buffer (5 mM MOPS pH 7.5, 9 mM MgAc, 0.3 mM EDTA, 0.06% Brij and 0.6 mM DTT, 1 μM non-radioactive ATP, 0.25 μCi ^33P-gamma-ATP (GE Healthcare, catalog number AH9968) final concentrations) with or without 5 μL containing test compound or vehicle (DMSO, 1% final concentration), in a total volume of 25 μL, in a polypropylene 96-well plate (Greiner, V-bottom). After 90 min at 30° C., reactions are stopped by adding of 25 μL/well of 150 mM phosphoric acid. […] Plates are washed 6 times with 300 μL per well of a 75 mM phosphoric acid solution and the bottom of the plates is sealed. 40 μL/well of Microscint-20 is added, the top of the plates is sealed and readout is performed using the Topcount (Perkin Elmer). Kinase activity is calculated by subtracting counts per min (cpm) obtained in the presence of a positive control inhibitor (10 μM staurosporine) from cpm obtained in the presence of vehicle. The ability of a test compound to inhibit this activity is determined as:
Percentage inhibition=((cpm determined for sample with test compound present−cpm determined for sample with positive control inhibitor)divided by(cpm determined in the presence of vehicle−cpm determined for sample with positive control inhibitor))*100.
Dose dilution series are prepared for the compounds enabling the testing of dose-response effects in the JAK2 assay and the calculation of the IC50 for each compound.
1.2.2 JAK2 Ulight-JAK1 Peptide Assay
After 60 min at room temperature, reactions were stopped by adding 20 μL/well of detection mixture (1× detection buffer (Perkin Elmer, catalog number CR97-100C), 0.5 nM Europium-anti-phosphotyrosine (PT66) (Perkin Elmer, catalog number AD0068), 10 mM EDTA). […] Kinase activity was calculated by subtracting relative fluorescence units (RFU) obtained in the presence of a positive control inhibitor (10 μM staurosporine) from RFU obtained in the presence of vehicle. The ability of a test compound to inhibit this activity was determined as:
Percentage inhibition=((RFU determined for sample with test compound present−RFU determined for sample with positive control inhibitor)divided by(RFU determined in the presence of vehicle−RFU determined for sample with positive control inhibitor))*100.
Dose dilution series are prepared for compound enabling the testing of dose-response effects in the JAK2 assay and the calculation of the IC50 for the compound. Each compound is routinely tested at concentration of 20 μM followed by a 1/5 serial dilution, 10 points in a final concentration of 1% DMSO. […] The data are expressed as the average IC50 from the assays±standard error of the mean.

T2 sequence (O60674 808-1132): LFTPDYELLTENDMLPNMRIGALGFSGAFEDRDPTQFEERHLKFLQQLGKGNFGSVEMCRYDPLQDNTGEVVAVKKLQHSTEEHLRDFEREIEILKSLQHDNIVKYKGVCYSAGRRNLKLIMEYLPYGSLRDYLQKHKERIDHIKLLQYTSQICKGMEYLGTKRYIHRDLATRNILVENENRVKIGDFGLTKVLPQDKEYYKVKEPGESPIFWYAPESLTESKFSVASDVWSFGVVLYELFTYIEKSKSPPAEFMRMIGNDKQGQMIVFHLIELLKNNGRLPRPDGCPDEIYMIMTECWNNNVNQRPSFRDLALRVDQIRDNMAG
T1 sequence (P23458 866-1154): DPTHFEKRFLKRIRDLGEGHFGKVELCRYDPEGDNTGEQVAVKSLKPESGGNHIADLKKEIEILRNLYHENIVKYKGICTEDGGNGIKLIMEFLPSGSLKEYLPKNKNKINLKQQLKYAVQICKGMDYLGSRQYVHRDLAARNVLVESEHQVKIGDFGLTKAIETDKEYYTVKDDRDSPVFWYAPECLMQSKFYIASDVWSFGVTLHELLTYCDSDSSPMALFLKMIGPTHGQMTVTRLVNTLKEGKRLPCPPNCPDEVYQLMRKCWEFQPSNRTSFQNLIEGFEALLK

For the molecule `Cc1cc(OCC(=O)N(C)C)ccc1N(C)c1cc2c(cn1)ncn2C` [Compound 51, N,N-dimethyl-2-(3-methyl-4-(methyl(1-methyl-1H-imidazo[4,5-c]pyridin-6-yl)amino)phenoxy)acetamide], the IC50 in test [1] and in test [2] was more than 1 µM throughout.

Regarding `Cc1cc(OCCN2CCCC2)ccc1N(C)c1cc2c(cn1)ncn2C` [Compound 52, N,1-dimethyl-N-(2-methyl-4-(2-(pyrrolidin-1-yl)ethoxy)phenyl)-1H-imidazo[4,5-c]pyridin-6-amine], the IC50 (commonly the concentration that inhibits the measured activity by half) in test [1] is 0.501 to 1 µM; in test [2], more than 1 µM.

For the molecule `Cc1cc(OCc2ccccc2)ccc1N(C)c1cc2c(cn1)ncn2C` [Compound 53, N-(4-(benzyloxy)-2-methylphenyl)-N,1-dimethyl-1H-imidazo[4,5-c]pyridin-6-amine], the IC50 is 0.101 to 0.5 µM in test [1] and more than 1 µM in test [2].

With `Cc1cc(OCc2ccc(Cl)cc2)ccc1N(C)c1cc2c(cn1)ncn2C` [Compound 54, N-(4-(4-chlorobenzyloxy)-2-methylphenyl)-N,1-dimethyl-1H-imidazo[4,5-c]pyridin-6-amine], the results for the IC50 in test [1] and in test [2] were 0.501 to 1 µM and more than 1 µM, respectively.

Regarding `Cc1ccc(OCCN2CCCC2)cc1N(C)c1cc2c(cn1)ncn2C` [Compound 58, N,1-dimethyl-N-(2-methyl-5-(2-(pyrrolidin-1-yl)ethoxy)phenyl)-1H-imidazo[4,5-c]pyridin-6-amine], the IC50 in test [1] and in test [2] was more than 1 µM throughout.

In the case of `Cc1ccc(OCC(=O)N(C)C)cc1N(C)c1cc2c(cn1)ncn2C` [Compound 59, N,N-dimethyl-2-(4-methyl-3-(methyl(1-methyl-1H-imidazo[4,5-c]pyridin-6-yl)amino)phenoxy)acetamide], the results for the IC50 in test [1] and in test [2] were 0.101 to 0.5 µM and more than 1 µM, respectively.

Regarding `Cc1c(OCC(=O)N(C)C)cccc1N(C)c1cc2c(cn1)ncn2C` [Compound 65, N,N-dimethyl-2-(2-methyl-3-(methyl(1-methyl-1H-imidazo[4,5-c]pyridin-6-yl)amino)phenoxy)acetamide], the IC50 in test [1] and in test [2] was more than 1 µM in each case.

Regarding `Cc1c(OCCCC#N)cccc1N(C)c1cc2c(cn1)ncn2C` [Compound 66, 4-(2-methyl-3-(methyl(1-methyl-1H-imidazo[4,5-c]pyridin-6-yl)amino)phenoxy)butane nitrile], the IC50 is 0.101 to 0.5 µM in test [1] and more than 1 µM in test [2].

Turning to `Cc1c(OCc2cccnc2)cccc1N(C)c1cc2c(cn1)ncn2C` [Compound 69, N,1-dimethyl-N-(2-methyl-3-(pyridin-3-ylmethoxy)phenyl)-1H-imidazo[4,5-c]pyridin-6-amine], the IC50 in test [1] is 0.101 to 0.5 µM; in test [2], more than 1 µM.

For the molecule `Cc1c(OCC(C)C)cccc1N(C)c1cc2c(cn1)ncn2C` [Compound 70, N-(3-isobutoxy-2-methylphenyl)-N,1-dimethyl-1H-imidazo[4,5-c]pyridin-6-amine], the results for the IC50 in test [1] and in test [2] were 0.101 to 0.5 µM and 0.501 to 1 µM, respectively.

As to `COc1ccc(Cc2ccc(N(C)c3cc4c(cn3)ncn4C)c(C)c2)cc1` [Compound 74, N-(4-(4-methoxybenzyl)-2-methylphenyl)-N,1-dimethyl-1H-imidazo[4,5-c]pyridin-6-amine], the IC50 in test [1] was 0.501 to 1 µM; in test [2] it was more than 1 µM.

Consider `Cc1c(OCc2ccccc2)cccc1N(C)c1cc2c(cn1)ncn2C` [Compound 75, N-(3-(benzyloxy)-2-methylphenyl)-N,1-dimethyl-1H-imidazo[4,5-c]pyridin-6-amine], for which the IC50 in test [1] and in test [2] was 0.501 to 1 µM throughout.

Turning to `Cc1c(OCc2ccc(Cl)cc2)cccc1N(C)c1cc2c(cn1)ncn2C` [Compound 76], the IC50 in test [1] and in test [2] was more than 1 µM throughout.

Turning to `Cc1c(OCCN2CCCC2)cccc1N(C)c1cc2c(cn1)ncn2C` [Compound 77, N,1-dimethyl-N-(2-methyl-3-(2-(pyrrolidin-1-yl)ethoxy)phenyl)-1H-imidazo[4,5-c]pyridin-6-amine], the IC50 in test [1] and in test [2] was more than 1 µM in each case.

For `CCc1ccncc1N(C)c1cc2c(cn1)ncn2C` [Compound 78, N-(4-ethylpyridin-3-yl)-N,1-dimethyl-1H-imidazo[4,5-c]pyridin-6-amine], the values for the 50% inhibitory concentration (IC50) in test [1] and in test [2] were 0.101 to 0.5 µM and more than 1 µM, respectively.

As to `CCc1ncccc1N(C)c1cc2c(cn1)ncn2C` [Compound 79, N-(2-ethylpyridin-3-yl)-N,1-dimethyl-1H-imidazo[4,5-c]pyridin-6-amine], the IC50 in test [1] and in test [2] was more than 1 µM each time.

For `CCc1ccc(C(=O)N(C)C)cc1N(C)c1cc2c(cn1)ncn2C` [Compound 87, 4-Ethyl-N,N-dimethyl-3-(methyl(1-methyl-1H-imidazo[4,5-c]pyridin-6-yl)amino)benzamide], the IC50 in test [1] was 0.101 to 0.5 µM; in test [2], more than 1 µM.

`Cc1cc(Oc2ccc(C#N)nc2)ccc1N(C)c1cc2c(cn1)ncn2C` [Compound 88, 5-(3-methyl-4-(methyl(1-methyl-1H-imidazo[4,5-c]pyridin-6-yl)amino)phenoxy)picolino-nitrile]: the IC50 in test [1] is 0.101 to 0.5 µM; in test [2], more than 1 µM.

With `Cc1c(Oc2ccc(C#N)nc2)cccc1N(C)c1cc2c(cn1)ncn2C` [Compound 90, 5-(2-methyl-3-(methyl(1-methyl-1H-imidazo[4,5-c]pyridin-6-yl)amino)phenoxy)picolino-nitrile], the results for the IC50 in test [1] and in test [2] were 0.101 to 0.5 µM and more than 1 µM, respectively.

As to `CCc1c(C(=O)OC)cccc1N(C)c1cc2c(cn1)ncn2C` [Compound 96, methyl 2-ethyl-3-(methyl(1-methyl-1H-imidazo[4,5-c]pyridin-6-yl)amino)benzate], the IC50 in test [1] and in test [2] was more than 1 µM in each case.

As for `Cc1c(OCc2ccc(C#N)nc2)cccc1N(C)c1cc2c(cn1)ncn2C` [Compound 97, 5-((2-methyl-3-(methyl(1-methyl-1H-imidazo[4,5-c]pyridin-6-yl)amino)phenoxy)methyl) picolinonitrile], the IC50 in test [1] is 0.101 to 0.5 µM; in test [2] it was more than 1 µM.

On to `CCc1cc(C(=O)NCCc2ccccc2)ccc1N(C)c1cc2c(cn1)ncn2C` [Compound 99, 3-ethyl-4-(methyl(1-methyl-1H-imidazo[4,5-c]pyridin-6-yl)amino)-N-phenethylbenzamide], for which the IC50 in test [1] was 0.101 to 0.5 µM; in test [2], more than 1 µM.

In the case of `CCc1cc(C(=O)N2CCN(C)CC2)ccc1N(C)c1cc2c(cn1)ncn2C` [Compound 100, (3-ethyl-4-(methyl(1-methyl-1H-imidazo[4,5-c]pyridin-6-yl)amino)phenyl)(4-methylpiperazin-1-yl)methanone], the IC50 in test [1] is 0.501 to 1 µM; in test [2], more than 1 µM.

For `CCc1cc(C(=O)N2CCS(=O)(=O)CC2)ccc1N(C)c1cc2c(cn1)ncn2C` [Compound 104, (1,1-Dioxothiomorpholin-4-yl)-{3-ethyl-4-[methyl-(1-methyl-1H-imidazo[4,5-c]pyridin-6-yl)-amino]-phenyl}-methanone], the IC50 in test [1] and in test [2] was more than 1 µM in each case.

In the case of `CCc1cc(C(=O)N2CCC(N(C)C)C2)ccc1N(C)c1cc2c(cn1)ncn2C` (stereo not drawn) [Compound 106, (3-(dimethylamino)pyrrolidin-1-yl)(3-ethyl-4-(methyl(1-methyl-1H-imidazo[4,5-c]pyridin-6-yl)amino)phenyl)methanone], the IC50 in test [1] and in test [2] was more than 1 µM in each case.

Turning to `CCc1ccc(C(N)=O)cc1N(C)c1cc2c(cn1)ncn2C` [Compound 108, 4-ethyl-3-(methyl(1-methyl-1H-imidazo[4,5-c]pyridin-6-yl)amino)benzamide], the IC50 in test [1] is 0.101 to 0.5 µM; in test [2] it was more than 1 µM.

For the molecule `CCc1ccc(CO)cc1N(C)c1cc2c(cn1)ncn2C` [Compound 109, (4-Ethyl-3-(methyl(1-methyl-1H-imidazo[4,5-c]pyridin-6-yl)amino)phenyl)MeOH], the IC50 in test [1] is 0.101 to 0.5 µM; in test [2], more than 1 µM.

(Values after patent US20130217664A1, “NOVEL COMPOUNDS USEFUL FOR THE TREATMENT OF DEGENERATIVE AND INFLAMMATORY DISEASES” (priority 2012, published 2013).)
